Laboratory results: ChEMBL document CHEMBL1201861, “Genomics of Drug Sensitity in Cancer screening data, Wellcome Trust Sanger Institute”

Each compound was assayed on ALL-PO (assay: cells). Settings: Homo sapiens, ALL-PO.
Format: functional, cell-based, Homo sapiens
Description: SANGER: Inhibition of human ALL-PO cell growth in a cell viability assay.

Row | SMILES | IC50 [µM]
1 | Cc1cc(N2CCOCC2)cc2[nH]c(-c3c(NC[C@@H](O)c4cccc(Cl)c4)cc[nH]c3=O)nc12 | 0.373

Each compound was assayed on MPP-89 (assay: cells). Settings: Homo sapiens, MPP-89.
Format: functional, cell-based, Homo sapiens
Description: SANGER: Inhibition of human MPP-89 cell growth in a cell viability assay.

Row | SMILES | IC50 [µM]
2 | Cc1cc(N2CCOCC2)cc2[nH]c(-c3c(NC[C@@H](O)c4cccc(Cl)c4)cc[nH]c3=O)nc12 | 3.5

What follows are compounds tested on SH-4 (assay: cells). Settings: Homo sapiens.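 Further: growth inhibition of SH-4 cells, read out with a cell viability assay.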
Format: functional, cell-based
Description: SANGER: Inhibition of human SH-4 cell growth in a cell viability assay.

Row | SMILES | IC50 [µM]
3 | Cc1cc(N2CCOCC2)cc2[nH]c(-c3c(NC[C@@H](O)c4cccc(Cl)c4)cc[nH]c3=O)nc12 | 0.882

These compounds were tested on SK-MEL-1 (assay: cells). Settings: Homo sapiens, SK-MEL-1.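 Further: growth inhibition of human SK-MEL-1 cells, read out by a cell viability assay.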
Format: functional, cell-based, Homo sapiens
Description: SANGER: Inhibition of human SK-MEL-1 cell growth in a cell viability assay.

Row | SMILES | IC50 [µM]
4 | Cc1cc(N2CCOCC2)cc2[nH]c(-c3c(NC[C@@H](O)c4cccc(Cl)c4)cc[nH]c3=O)nc12 | > 5.12

These compounds were tested on COR-L88 (assay: cells). Settings: Homo sapiens, COR-L88.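 Further: growth inhibition of COR-L88 cells, read out with a cell viability assay.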
Format: functional, cell-based, Homo sapiens
Description: SANGER: Inhibition of human COR-L88 cell growth in a cell viability assay.

Row | SMILES | IC50 [µM]
5 | Cc1cc(N2CCOCC2)cc2[nH]c(-c3c(NC[C@@H](O)c4cccc(Cl)c4)cc[nH]c3=O)nc12 | > 5.12

What follows are compounds tested on DMS-114 (assay: cells). Settings: Homo sapiens, DMS-114.
Format: functional, cell-based, Homo sapiens

Row | SMILES | IC50 [µM]
6 | Cc1cc(N2CCOCC2)cc2[nH]c(-c3c(NC[C@@H](O)c4cccc(Cl)c4)cc[nH]c3=O)nc12 | > 5.12

What follows are compounds tested on LB771-HNC (assay: cells). Settings: Homo sapiens.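 Further: growth inhibition of LB771-HNC human cells, read out with a cell viability assay.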
Format: functional, cell-based
Description: SANGER: Inhibition of human LB771-HNC cell growth in a cell viability assay.

Row | SMILES | IC50 [µM]
7 | Cc1cc(N2CCOCC2)cc2[nH]c(-c3c(NC[C@@H](O)c4cccc(Cl)c4)cc[nH]c3=O)nc12 | 0.23

These compounds were tested on MOLT-16 (assay: cells). Settings: Homo sapiens, MOLT-16.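 Further: growth inhibition of human MOLT-16 cells, read out with a cell viability assay.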
Format: functional, cell-based, Homo sapiens
Description: SANGER: Inhibition of human MOLT-16 cell growth in a cell viability assay.

Row | SMILES | IC50 [µM]
8 | Cc1cc(N2CCOCC2)cc2[nH]c(-c3c(NC[C@@H](O)c4cccc(Cl)c4)cc[nH]c3=O)nc12 | 5.02

What follows are compounds tested on RXF 393 (assay: cells). Settings: Homo sapiens, RXF 393.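 Further: growth inhibition of human RXF 393 cells, read out with a cell viability assay.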
Format: functional, cell-based, Homo sapiens
Description: SANGER: Inhibition of human RXF393 cell growth in a cell viability assay.

Row | SMILES | IC50 [µM]
9 | Cc1cc(N2CCOCC2)cc2[nH]c(-c3c(NC[C@@H](O)c4cccc(Cl)c4)cc[nH]c3=O)nc12 | 1.3

These compounds were tested on COLO-684 (assay: cells). Settings: Homo sapiens, COLO-684.
Format: functional, cell-based, Homo sapiens
Description: SANGER: Inhibition of human COLO-684 cell growth in a cell viability assay.

Row | SMILES | IC50 [µM]
10 | Cc1cc(N2CCOCC2)cc2[nH]c(-c3c(NC[C@@H](O)c4cccc(Cl)c4)cc[nH]c3=O)nc12 | > 5.12

What follows are compounds tested on KE-37 (assay: cells). Settings: Homo sapiens, KE-37.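 Further: growth inhibition of KE-37 cells, read out with a cell viability assay.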
Format: functional, cell-based, Homo sapiens
Description: SANGER: Inhibition of human KE-37 cell growth in a cell viability assay.

Row | SMILES | IC50 [µM]
11 | Cc1cc(N2CCOCC2)cc2[nH]c(-c3c(NC[C@@H](O)c4cccc(Cl)c4)cc[nH]c3=O)nc12 | > 5.12

Each compound was assayed on HL-60 (assay: cells). Settings: Homo sapiens, HL-60.
Format: functional, cell-based, Homo sapiens
Description: SANGER: Inhibition of human HL-60 cell growth in a cell viability assay.

Row | SMILES | IC50 [µM]
12 | Cc1cc(N2CCOCC2)cc2[nH]c(-c3c(NC[C@@H](O)c4cccc(Cl)c4)cc[nH]c3=O)nc12 | 0.286

The compounds below were run on GOTO (assay: cells). Settings: Homo sapiens, GOTO.
Format: functional, cell-based, Homo sapiens
Description: SANGER: Inhibition of human GOTO cell growth in a cell viability assay.

Row | SMILES | IC50 [µM]
13 | Cc1cc(N2CCOCC2)cc2[nH]c(-c3c(NC[C@@H](O)c4cccc(Cl)c4)cc[nH]c3=O)nc12 | > 5.12

What follows are compounds tested on GI-1 (assay: cells). Settings: Homo sapiens, GI-1.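 Further: growth inhibition of human GI-1 cells, measured with a cell viability readout.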
Format: functional, cell-based, Homo sapiens
Description: SANGER: Inhibition of human GI-1 cell growth in a cell viability assay.

Row | SMILES | IC50 [µM]
14 | Cc1cc(N2CCOCC2)cc2[nH]c(-c3c(NC[C@@H](O)c4cccc(Cl)c4)cc[nH]c3=O)nc12 | 0.913

These compounds were tested on NCI-H1304 (assay: cells). Settings: Homo sapiens, NCI-H1304.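 Further: growth inhibition of the cancer cell line, measured in a cell viability assay.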
Format: functional, cell-based, Homo sapiens
Description: SANGER: Inhibition of human NCI-H1304 cell growth in a cell viability assay.

Row | SMILES | IC50 [µM]
15 | Cc1cc(N2CCOCC2)cc2[nH]c(-c3c(NC[C@@H](O)c4cccc(Cl)c4)cc[nH]c3=O)nc12 | > 5.12

The compounds below were run on EW-11 (assay: cells). Settings: Homo sapiens, EW-11.
Format: functional, cell-based, Homo sapiens
Description: SANGER: Inhibition of human EW-11 cell growth in a cell viability assay.

Row | SMILES | IC50 [µM]
16 | Cc1cc(N2CCOCC2)cc2[nH]c(-c3c(NC[C@@H](O)c4cccc(Cl)c4)cc[nH]c3=O)nc12 | > 5.12

The compounds below were run on GR-ST (assay: cells). Settings: Homo sapiens, GR-ST.
Format: functional, cell-based, Homo sapiens
Description: SANGER: Inhibition of human GR-ST cell growth in a cell viability assay.

Row | SMILES | IC50 [µM]
17 | Cc1cc(N2CCOCC2)cc2[nH]c(-c3c(NC[C@@H](O)c4cccc(Cl)c4)cc[nH]c3=O)nc12 | 3.27

Each compound was assayed on VA-ES-BJ (assay: cells). Settings: Homo sapiens, VA-ES-BJ.
Format: functional, cell-based, Homo sapiens
Description: SANGER: Inhibition of human VA-ES-BJ cell growth in a cell viability assay.

Row | SMILES | IC50 [µM]
18 | Cc1cc(N2CCOCC2)cc2[nH]c(-c3c(NC[C@@H](O)c4cccc(Cl)c4)cc[nH]c3=O)nc12 | > 5.12

What follows are compounds tested on RCC10RGB (assay: cells). Settings: Homo sapiens, RCC10RGB.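 Further: growth inhibition of human RCC10RGB cells, read out by a cell viability assay.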
Format: functional, cell-based, Homo sapiens
Description: SANGER: Inhibition of human RCC10RGB cell growth in a cell viability assay.

Row | SMILES | IC50 [µM]
19 | Cc1cc(N2CCOCC2)cc2[nH]c(-c3c(NC[C@@H](O)c4cccc(Cl)c4)cc[nH]c3=O)nc12 | 3.57

Each compound was assayed on LAN-6 (assay: cells). Settings: Homo sapiens, LAN-6.
Format: functional, cell-based, Homo sapiens
Description: SANGER: Inhibition of human LAN-6 cell growth in a cell viability assay.

Row | SMILES | IC50 [µM]
20 | Cc1cc(N2CCOCC2)cc2[nH]c(-c3c(NC[C@@H](O)c4cccc(Cl)c4)cc[nH]c3=O)nc12 | 0.172

Each compound was assayed on LS-1034 (assay: cells). Settings: Homo sapiens, LS-1034.
Format: functional, cell-based, Homo sapiens
Description: SANGER: Inhibition of human LS-1034 cell growth in a cell viability assay.

Row | SMILES | IC50 [µM]
21 | Cc1cc(N2CCOCC2)cc2[nH]c(-c3c(NC[C@@H](O)c4cccc(Cl)c4)cc[nH]c3=O)nc12 | 0.758

The compounds below were run on NB6 (assay: cells). Settings: Homo sapiens, NB6.
Format: functional, cell-based, Homo sapiens
Description: SANGER: Inhibition of human NB6 cell growth in a cell viability assay.

Row | SMILES | IC50 [µM]
22 | Cc1cc(N2CCOCC2)cc2[nH]c(-c3c(NC[C@@H](O)c4cccc(Cl)c4)cc[nH]c3=O)nc12 | > 5.12

Each compound was assayed on C2BBe1 (assay: cells). Settings: Homo sapiens, C2BBe1.
Format: functional, cell-based, Homo sapiens
Description: SANGER: Inhibition of human C2BBe1 cell growth in a cell viability assay.

Row | SMILES | IC50 [µM]
23 | Cc1cc(N2CCOCC2)cc2[nH]c(-c3c(NC[C@@H](O)c4cccc(Cl)c4)cc[nH]c3=O)nc12 | > 5.12

These compounds were tested on DJM-1 (assay: cells). Settings: Homo sapiens, DJM-1.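 Further: growth inhibition of human DJM-1 cells, read out by a cell viability assay.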
Format: functional, cell-based, Homo sapiens
Description: SANGER: Inhibition of human DJM-1 cell growth in a cell viability assay.

Row | SMILES | IC50 [µM]
24 | Cc1cc(N2CCOCC2)cc2[nH]c(-c3c(NC[C@@H](O)c4cccc(Cl)c4)cc[nH]c3=O)nc12 | > 5.12

The compounds below were run on HOP-62 (assay: cells). Settings: Homo sapiens, HOP-62.
Format: functional, cell-based, Homo sapiens
Description: SANGER: Inhibition of human HOP-62 cell growth in a cell viability assay.

Row | SMILES | IC50 [µM]
25 | Cc1cc(N2CCOCC2)cc2[nH]c(-c3c(NC[C@@H](O)c4cccc(Cl)c4)cc[nH]c3=O)nc12 | 0.936

What follows are compounds tested on TGBC24TKB (assay: cells). Settings: Homo sapiens.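 Further: growth inhibition of human TGBC24TKB cells, read out with a cell viability assay.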
Format: functional, cell-based
Description: SANGER: Inhibition of human TGBC24TKB cell growth in a cell viability assay.

Row | SMILES | IC50 [µM]
26 | Cc1cc(N2CCOCC2)cc2[nH]c(-c3c(NC[C@@H](O)c4cccc(Cl)c4)cc[nH]c3=O)nc12 | 0.275
